Assay results: article PMC8156151 (The European Respiratory Journal, 2021)
Like-named read-outs stand apart in the source and are kept apart here.

Assays:
Format in all cases: in vivo, human
IL-13 = assay: Plasma biomarker IL-13; conditions: for IL-13 raw data, Mean (SD) / IL-13 least square means % baseline±SEM: IPF patients
Method: (§1) All patients, investigators, sites and study sponsor personnel were blinded to the study group assignments throughout the study. Patients underwent study-specific assessments on days 2, 3, 7, 14 and 15, and a post-study assessment was carried out 26–30 days after the last day of the study period. Assessments included vital signs (supine blood pressure, pulse, oxygen saturation, oral temperature and respiratory rate), spirometry, 12-lead ECG, physical examination, laboratory safety screen (haematology, biochemistry, urinalysis and urinary drugs of abuse screen) and blood sampling for PK measurements. All adverse events and concomitant medications were recorded from the time of the screening visit until the post-study follow-up visit. BAL was performed at day −1 (24 h before the first dose) and at day 14 (2 h after the last dose). The BAL procedure was performed as per international guidelines. Briefly, 240 mL of 0.9% saline at room temperature was instilled in 40 mL aliquots into the right middle lobe and aspirated by suction after each aliquot.
(§2) BAL cells were separated from fluid by centrifugation, and cells were collected, stained with antibodies (supplementary material) and then fixed before analysis using a LSR Fortessa flow cytometer (Becton Dickinson, Franklin Lakes, NJ, USA). Data were analysed using FlowJo software (Tree Star, Ashland, OR, USA). Macrophages were identified as having high side scatter properties and human leukocyte antigen-DR positivity. Gal-3 expression (mean fluorescence intensity) was determined from the macrophage gate (supplementary figures S1 and S2). […] Samples were analysed by magnetic Luminex assay (R&D Systems, Minneapolis, MN, USA) or ELISA.
(§3) For part 2 of the study, placebos were combined from the three dose-specific cohorts into a pooled control group (n=9). For alveolar macrophage Gal-3 expression and the plasma biomarkers, ANCOVA was performed for percentage of baseline ((day 14/day 1)×100). The ANCOVA model included effects for treatment group and baseline (day 1) value. […] An additional analysis including dose as a continuous covariate was also performed. The Pearson correlation coefficient (r) and associated p-value were calculated for percentage of baseline and day 14 values between plasma biomarkers and alveolar macrophage Gal-3 expression. […] The analysis is exploratory and there was no pre-planned adjustment for multiple testing; the study was not powered for this. Alveolar macrophage Gal-3 expression was considered the primary exploratory analysis with the pre-selected biomarkers secondary. A Bonferroni correction for multiple testing of the secondary end-points comparing the 10 mg group with placebo gives a critical value of 0.0063. Data are presented as the difference in least square means with 95% confidence interval and p-value unless otherwise stated. All analyses were performed using SAS version 9.4 (SAS Institute, Cary, NC, USA). […]

Gal-3 = conditions: for Galectin-3 raw data, Mean (SD) / Gal-3 least square means % baseline±SEM: IPF patients; for Galectin-3 raw data, Mean (SD): Day 14; for Gal-3 least square means % baseline±SEM: day 14
Method: as §1, with “BAL was performed at day −1 (24 h before the first dose) and at day 14 (2 h after the last dose).” left out
as §2
as §3, with “Data are presented as the difference in least square means with 95% confidence interval and p-value unless otherwise stated.” left out
(§4) Plasma pharmacodynamic biomarkers
The following pre-specified biomarkers were evaluated in samples of plasma based on the basis

BAL cells = assay: BAL cell classification and quantification (flow cytometry); conditions: any dose groups
Method: Dickinson, NJ, USA). Data were analysed using FlowJo software (Becton Dickinson, NJ, […]
identify cell populations based on surface marker expression. The antibodies used were Gal-3- […]
Biolegend except Gal-3-FITC which was from Cedarlane. Macrophages were identified as having high side scatter properties and HLA-DR positivity. Gal-3 expression (mean fluorescence intensity, MFI) was determined from the macrophage gate. Macrophage subsets […]
as §4
Secreted], CCL18 [pulmonary and activation-regulated chemokine], CCL26 [eotaxin], […]
A disease relevance score was
(supplementary table S2).
BAL cell classification and quantification
CD163 and CD206 expression (supplemental figure S2). […]
following treatment with TD139 in the high dose group.

PDGF-BB = assay: Plasma biomarker PDGF-BB (Luminex/ELISA); conditions: for PDGF-BB raw data, Mean (SD) / PDGF-BB least square means % baseline±SEM: IPF patients
Method: as §1, §2, §3

HGF = assay: Plasma biomarker HGF; conditions: for HGF raw data, Mean (SD) / HGF least square means % baseline±SEM: IPF patients
Method: as §1, §2, §3

Gal-1 = assay: Plasma biomarker Gal-1; conditions: for Galectin-1 raw data, Mean (SD) / Gal-1 least square means % baseline±SEM: IPF patients
Method: as §1, §2, §3

MMP-8 = assay: Plasma biomarker MMP-8; conditions: for MMP-8 raw data, Mean (SD) / MMP-8 least square means % baseline±SEM: IPF patients
Method: as §1, §2, §3

## OC[C@H]1O[C@@H](S[C@@H]2O[C@H](CO)[C@H](O)[C@H](n3cc(-c4cccc(F)c4)nn3)[C@H]2O)[C@H](O)[C@@H](n2cc(-c3cccc(F)c3)nn2)[C@H]1O [TD139]
IL-13; 10 mg vs placebo, ANCOVA
  IL-13 difference in least square means % baseline (95% CI): −7.6 (−30.4–15.2) % baseline
IL-13; Day 14, 0.3 mg
  IL-13 raw data, Mean (SD): 1219.4 (155.7) pg/ml
IL-13; Day 14, 3 mg
  IL-13 raw data, Mean (SD): 1476.6 (140.99) pg/ml
IL-13; Day 14, 10 mg
  IL-13 raw data, Mean (SD): 1358.8 (149.34) pg/ml
IL-13; day 14, 0.3 mg once daily
  IL-13 least square means % baseline±SEM: 87.4±8.8 % baseline
IL-13; day 14, 3 mg once daily
  IL-13 least square means % baseline±SEM: 100.4±9.5 % baseline
IL-13; day 14, 10 mg once daily
  IL-13 least square means % baseline±SEM: 97.6±8.8 % baseline
Gal-3; 10 mg dose group
  circulating Gal-3 plasma concentrations (percentage of baseline), difference versus placebo: −67.63%
Gal-3; plasma, 0.3 mg
  Galectin-3 raw data, Mean (SD): 13290.4 (4951.24) pg/ml
Gal-3; plasma, 3 mg
  Galectin-3 raw data, Mean (SD): 9298.5 (3499.54) pg/ml
Gal-3; plasma, 10 mg
  Galectin-3 raw data, Mean (SD): 4486.3 (697.25) pg/ml
Gal-3; plasma, 0.3 mg once daily
  Gal-3 least square means % baseline±SEM: 113.9±21.2 % baseline
Gal-3; plasma, 3 mg once daily
  Gal-3 least square means % baseline±SEM: 119.5±21.3 % baseline
Gal-3; plasma, 10 mg once daily
  Gal-3 least square means % baseline±SEM: 53.4±23.5 % baseline
Gal-3; plasma, 10 mg vs placebo, ANCOVA
  Gal-3 difference in least square means % baseline (95% CI): −67.6 (−126.9– −8.4) % baseline
BAL cells
  abundance or frequencies of CD4+ or CD8+ T cells, Tregs, NK, NKT, B cells, neutrophils or monocytes in BAL: no change in the abundance or frequencies
PDGF-BB; 10 mg vs placebo, ANCOVA
  PDGF-BB difference in least square means % baseline (95% CI): −239.5 (−384.8– −94.2) % baseline
PDGF-BB; Day 14, 0.3 mg
  PDGF-BB raw data, Mean (SD): 1519 (1034.92) pg/ml
PDGF-BB; Day 14, 3 mg
  PDGF-BB raw data, Mean (SD): 2201.9 (2935.52) pg/ml
PDGF-BB; Day 14, 10 mg
  PDGF-BB raw data, Mean (SD): 1131.4 (1190.78) pg/ml
PDGF-BB; day 14, 0.3 mg once daily
  PDGF-BB least square means % baseline±SEM: 90.5±55.2 % baseline
PDGF-BB; day 14, 3 mg once daily
  PDGF-BB least square means % baseline±SEM: 103.7±54.1 % baseline
PDGF-BB; day 14, 10 mg once daily
  PDGF-BB least square means % baseline±SEM: 35.7±54.2 % baseline
HGF; 10 mg vs placebo, ANCOVA
  HGF difference in least square means % baseline (95% CI): −37.2 (−85.5–11.2) % baseline
HGF; Day 14, 0.3 mg
  HGF raw data, Mean (SD): 109.8 (23.24) pg/ml
HGF; Day 14, 3 mg
  HGF raw data, Mean (SD): 159.1 (110.2) pg/ml
HGF; Day 14, 10 mg
  HGF raw data, Mean (SD): 131.2 (44.47) pg/ml
HGF; day 14, 0.3 mg once daily
  HGF least square means % baseline±SEM: 100.3±17.5 % baseline
HGF; day 14, 3 mg once daily
  HGF least square means % baseline±SEM: 103.2±16.9 % baseline
HGF; day 14, 10 mg once daily
  HGF least square means % baseline±SEM: 73.2±18.8 % baseline
Gal-1; 10 mg vs placebo, ANCOVA
  Gal-1 difference in least square means % baseline (95% CI): −16.6 (−60.0–26.7) % baseline
Gal-1; Day 14, 0.3 mg
  Galectin-1 raw data, Mean (SD): 41996.4 (7357.87) pg/ml
Gal-1; Day 14, 3 mg
  Galectin-1 raw data, Mean (SD): 60416.7 (17348.65) pg/ml
Gal-1; Day 14, 10 mg
  Galectin-1 raw data, Mean (SD): 48409.7 (21339.06) pg/ml
Gal-1; day 14, 0.3 mg once daily
  Gal-1 least square means % baseline±SEM: 93.1±16.7 % baseline
Gal-1; day 14, 3 mg once daily
  Gal-1 least square means % baseline±SEM: 120.2±16.6 % baseline
Gal-1; day 14, 10 mg once daily
  Gal-1 least square means % baseline±SEM: 89.7±16.6 % baseline
MMP-8; 10 mg vs placebo, ANCOVA
  MMP-8 difference in least square means % baseline (95% CI): −125.4 (−271.3–20.5) % baseline
MMP-8; Day 14, 0.3 mg
  MMP-8 raw data, Mean (SD): 1911.5 (1577.82) pg/ml
MMP-8; Day 14, 3 mg
  MMP-8 raw data, Mean (SD): 2263.3 (2428.78) pg/ml
MMP-8; Day 14, 10 mg
  MMP-8 raw data, Mean (SD): 44436.7 (97465.67) pg/ml
MMP-8; day 14, 0.3 mg once daily
  MMP-8 least square means % baseline±SEM: 138.0±52.8 % baseline
MMP-8; day 14, 3 mg once daily
  MMP-8 least square means % baseline±SEM: 115.2±52.7 % baseline
MMP-8; day 14, 10 mg once daily
  MMP-8 least square means % baseline±SEM: 51.5±56.1 % baseline
